In patent US10738062B2, “Chromane-substituted tetracyclic compounds and uses thereof for the treatment of viral diseases” (Merck Sharp & Dohme Corp., priority 2016, dated 2020):
Read-outs that look alike come from different tables or passages of the source.

What was measured:
Design in all cases: species or system Hepatitis C virus
HCV replicon 1A = assay: Cell-based HCV replicon assay (Replicon Assay A), replicon 1A; settings: replicon RNA by real time PCR, day 3
Summary of the method: (§1)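 Replicon cells were seeded at 2000/well with compound, 10 serial dilutions starting at 333.3 nM to 1.667 nM, in 0.5% DMSO and 5% FBS, then harvested on day 3. Replicon RNA was measured by multiplex TaqMan RT-PCR with cyclophilin as endogenous control. EC50 is the concentration raising Ct by 1 over projected baseline.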

HCV replicon 1B = assay: Cell-based HCV replicon assay (Replicon Assay B), replicon 1B; settings: replicon RNA by real-time PCR, 3 days
Protocol: In an alternate assay (“Replicon Assay B”), 1000 cells were seeded per well in a 384-well collagen coated black plate from Greiner bio-one (Cat #781946) in 5% FBS. Inhibitors of this invention were added at 24 h post-seeding, and the plates were incubated for 3 days. Cells were subsequently lysed with Qiagen lysis buffer (Cat #1062731) to extract the RNA. HCV replicon RNA level was measured by real-time PCR using the RNA-to-CT kit from Applied Biosystem (Cat #4392656) and genotype-specific primers and probes. The amplicon was located within NS5B. […] (SEQ. ID NO. 2); the probe sequence was FAM-labeled […] (SEQ. ID NO. 3).
The real-time RT-PCR reactions were run on ABI PRISM 7900HT or Viia7 Sequence Detection System using the following program: 48° C. for 30 minutes, 95° C. for 10 minutes, 40 cycles of 95° C. for 15 sec, 60° C. for 1 minutes.
EC50 data for replicons 1A, 1AY93H and 2B were obtained using Replicon Assay A and EC50 data for replicon 1B was obtained using Replicon Assay B.

HCV replicon 2B = assay: Cell-based HCV replicon assay (Replicon Assay A), replicon 2B; settings: replicon RNA by real time PCR, day 3
Summary of the method: as §1

HCV replicon 1A Y93H = assay: Cell-based HCV replicon assay (Replicon Assay A), replicon 1AY93H; settings: replicon RNA by real time PCR, day 3
Summary of the method: as §1

[1] = Hepatitis C virus, 72 h, read-out: EC50 replicon 2B, Replicon Assay A
[2] = read-out: EC50 replicon 2B, Replicon Assay A
[3] = read-out: EC50 replicon 1A Y93H, Replicon Assay A

Compound	EC50 (HCV replicon 1A; Hepatitis C virus, 72 h) [pM]	EC50 (HCV replicon 1B; Hepatitis C virus, 72 h) [pM]	EC50 (HCV replicon 2B; [1]) [pM]	EC50 (HCV replicon 1A Y93H; Hepatitis C virus, 72 h, read-out: EC50 replicon 1A Y93H, Replicon Assay A) [pM]	EC50 (HCV replicon 1A) [pM]	EC50 (HCV replicon 1B) [pM]	EC50 (HCV replicon 2B; [2]) [pM]	EC50 (HCV replicon 1A Y93H; [3]) [pM]
COC(=O)NC(C(=O)N1[C@@H]2C[C@@H]2C[C@H]1c1ncc(-c2ccc3c(c2)cc2n3C(c3ccc4c(c3)OCCC4)Oc3cc(-c4cnc([C@@H]5CCCN5C(=O)[C@@H](NC(=O)OC)C(C)C)[nH]4)cc(F)c3-2)[nH]1)C1CCOC(C)(C)C1 (single isomer, unassigned) [Compound 69]	3.2	3.5	8	5	–	–	–	–
COC(=O)NC(C(=O)N1[C@@H]2C[C@@H]2C[C@H]1c1ncc(-c2ccc3c(c2)cc2n3C(c3ccc4c(c3)OCCC4)Oc3cc(-c4cnc([C@@H]5CCCN5C(=O)[C@@H](NC(=O)OC)C(C)C)[nH]4)cc(F)c3-2)[nH]1)C1CCOC(C)(C)C1 (single isomer, unassigned) [Compound 70]	–	–	–	–	2.8	2.7	12	6
COC(=O)NC(C(=O)N1CCC[C@H]1c1ncc(-c2ccc3c(c2)cc2n3C(c3ccc4c(c3)OCCC4)Oc3cc(-c4cnc([C@@H]5CCCN5C(=O)[C@@H](NC(=O)OC)C(C)C)[nH]4)cc(F)c3-2)[nH]1)C1C[C@@H](C)O[C@@H](C)C1 (single isomer, unassigned) [Compound 76]	–	3.2	–	–	2.5	–	4	12
COC(=O)NC(C(=O)N1CCC[C@H]1c1ncc(-c2ccc3c(c2)cc2n3C(c3ccc4c(c3)OCCC4)Oc3cc(-c4cnc([C@@H]5CCCN5C(=O)[C@@H](NC(=O)OC)C(C)C)[nH]4)cc(F)c3-2)[nH]1)C1C[C@@H](C)O[C@H](C)C1 (single isomer, unassigned) [Compound 78]	–	2.6	–	–	2.2	–	4	9
COC(=O)NC(C(=O)N1CCC[C@H]1c1ncc(-c2ccc3c(c2)cc2n3C(c3ccc4c(c3)OCCC4)Oc3cc(-c4cnc([C@@H]5CCCN5C(=O)[C@@H](NC(=O)OC)C(C)C)[nH]4)cc(F)c3-2)[nH]1)C1CCOC(C)(C)C1 (single isomer, unassigned) [Compound 79]	1.7	2.7	7	–	–	–	–	6
COC(=O)NC(C(=O)N1CCC[C@H]1c1ncc(-c2ccc3c(c2)cc2n3C(c3ccc4c(c3)OCCC4)Oc3cc(-c4cnc([C@@H]5CCCN5C(=O)[C@@H](NC(=O)OC)C(C)C)[nH]4)cc(F)c3-2)[nH]1)C1CCOC(C)(C)C1 (single isomer, unassigned) [Compound 80]	–	–	–	–	2.6	3.2	6	24
COC(=O)NC(C(=O)N1[C@@H]2C[C@@H]2C[C@H]1c1ncc(-c2ccc3c(c2)cc2n3C(c3ccc4c(c3)OCCC4)Oc3cc(-c4cnc([C@@H]5CCCN5C(=O)[C@@H](NC(=O)OC)C(C)C)[nH]4)cc(F)c3-2)[nH]1)C1CCO[C@H](C)C1 (single isomer, unassigned) [Compound 82]	–	2.1	–	–	1.7	–	4	3
COC(=O)NC(C(=O)N1CCC[C@H]1c1ncc(-c2ccc3c(c2)cc2n3C(c3ccc4c(c3)OCCC4)Oc3cc(-c4cnc([C@@H]5CCCN5C(=O)[C@@H](NC(=O)OC)C(C)C)[nH]4)cc(C)c3-2)[nH]1)C1C[C@@H](C)O[C@@H](C)C1 (single isomer, unassigned) [Compound 86]	–	2.7	–	–	3	–	7	28
COC(=O)NC(C(=O)N1CCC[C@H]1c1ncc(-c2cc(F)c3c(c2)OC(c2ccc4c(c2)OCCC4)n2c-3cc3cc(-c4cnc([C@@H]5CCCN5C(=O)[C@@H](NC(=O)OC)C5CCOCC5)[nH]4)ccc32)[nH]1)C(C)(C)F (single isomer, unassigned) [Compound 87]	–	3.4	–	–	2.3	–	133	528
COC(=O)NC(C(=O)N1CCC[C@H]1c1ncc(-c2cc(F)c3c(c2)OC(c2ccc4c(c2)OCCC4)n2c-3cc3cc(-c4cnc([C@@H]5CCCN5C(=O)[C@@H](NC(=O)OC)C5CCOCC5)[nH]4)ccc32)[nH]1)C(C)(C)F (single isomer, unassigned) [Compound 88]	–	–	–	–	14.9	2.6	3110	9930
COC(=O)NC(C(=O)N1CCC[C@H]1c1ncc(-c2cc(F)c3c(c2)OC(c2ccc4c(c2)OCCC4)n2c-3cc3cc(-c4cnc([C@@H]5CCCN5C(=O)[C@@H](NC(=O)OC)C5CCOCC5)[nH]4)ccc32)[nH]1)C(C)(C)F (single isomer, unassigned) [Compound 89]	–	–	–	–	2.1	3.1	15	17
COC(=O)NC(C(=O)N1CCC[C@H]1c1ncc(-c2cc(F)c3c(c2)OC(c2ccc4c(c2)OCCC4)n2c-3cc3cc(-c4cnc([C@@H]5CCCN5C(=O)[C@@H](NC(=O)OC)C5CCOCC5)[nH]4)ccc32)[nH]1)C(C)(C)F (single isomer, unassigned) [Compound 90]	–	–	–	–	1.7	3.2	157	47
COC(=O)N[C@H](C(=O)N1CCC[C@H]1c1ncc(-c2cc(F)c3c(c2)OC(c2ccc4c(c2)OCCC4)n2c-3c(F)c3cc(-c4cnc([C@@H]5CCCN5C(=O)[C@@H](NC(=O)OC)C5CCOCC5)[nH]4)ccc32)[nH]1)C(C)C (single isomer, unassigned) [Compound 92]	–	2.4	–	–	1.5	–	6	6
COC(=O)NC(C(=O)N1CCC[C@H]1c1ncc(-c2ccc3c(c2)cc2n3C(c3ccc4c(c3)OCCC4)Oc3cc(-c4cnc([C@@H]5CCCN5C(=O)[C@@H](NC(=O)OC)C(C)C)[nH]4)cc(F)c3-2)[nH]1)C1CCO[C@H](C)C1 (single isomer, unassigned) [Compound 93]	1.7	2.1	–	–	–	–	112	671
COC(=O)NC(C(=O)N1CCC[C@H]1c1ncc(-c2ccc3c(c2)cc2n3C(c3ccc4c(c3)OCCC4)Oc3cc(-c4cnc([C@@H]5CCCN5C(=O)[C@@H](NC(=O)OC)C(C)C)[nH]4)cc(F)c3-2)[nH]1)C1CCO[C@H](C)C1 (single isomer, unassigned) [Compound 94]	–	–	–	–	2.3	3.3	4	6
